Measured values: ChEMBL document CHEMBL4732042, “Studies on the affinity of 6-[(n-(cyclo)aminoalkyl)oxy]-4H-chromen-4-ones for sigma 1/2 receptors” (RSC Med Chem, 2021)

Key:
[1] = target: T1, Sigma intracellular receptor 2 (Rattus norvegicus, UniProt Q5U3Y7); experiment: Displacement of (+)-[3H]DTG from sigma 2 receptor in SPRD rat liver membrane incubated for 2 hrs by liquid scintillation counting method; type: cell membranes
T1 sequence (Q5U3Y7 whole entry): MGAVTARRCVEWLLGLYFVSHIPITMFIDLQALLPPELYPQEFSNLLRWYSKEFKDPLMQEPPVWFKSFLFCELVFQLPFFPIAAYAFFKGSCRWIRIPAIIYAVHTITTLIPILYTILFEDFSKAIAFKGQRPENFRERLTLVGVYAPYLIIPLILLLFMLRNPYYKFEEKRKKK

[2] = target: Sigma non-opioid intracellular receptor 1 (Homo sapiens, UniProt Q99720); experiment: Displacement of [3H]pentazocine from human sigma 1 receptor expressed in HEK293 cell membrane incubated for 2 hrs by liquid scintillation counting method; type: cell membranes
[3] = target: T2, MAO-B (amine oxidase [flavin-containing] B) (Homo sapiens, UniProt P27338); experiment: Inhibition of human MAO-B assessed as residual activity at 10 uM; conditions: read-out: Activity
T2 sequence (P27338 whole entry): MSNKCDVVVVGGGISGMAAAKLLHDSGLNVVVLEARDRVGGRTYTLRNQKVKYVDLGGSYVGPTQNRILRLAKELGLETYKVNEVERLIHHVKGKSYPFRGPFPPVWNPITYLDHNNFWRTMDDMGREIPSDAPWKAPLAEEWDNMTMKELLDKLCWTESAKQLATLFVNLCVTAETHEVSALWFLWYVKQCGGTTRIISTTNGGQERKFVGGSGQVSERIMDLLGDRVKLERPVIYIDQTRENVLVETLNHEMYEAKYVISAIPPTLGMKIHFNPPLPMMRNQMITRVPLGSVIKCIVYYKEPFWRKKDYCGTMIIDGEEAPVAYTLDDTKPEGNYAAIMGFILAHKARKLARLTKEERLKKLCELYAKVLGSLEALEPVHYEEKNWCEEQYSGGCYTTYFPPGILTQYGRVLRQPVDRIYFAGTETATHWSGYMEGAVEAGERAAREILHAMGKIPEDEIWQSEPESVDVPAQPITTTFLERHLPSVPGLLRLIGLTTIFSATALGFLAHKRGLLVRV

[4] = target: Acetylcholinesterase (Homo sapiens, UniProt P22303); experiment: Inhibition of human AChE
[5] = target: Cholinesterase (Homo sapiens, UniProt P06276); experiment: Inhibition of human BuChE
[6] = target: T3, Amine oxidase [flavin-containing] B (Homo sapiens, UniProt P27338); experiment: Inhibition of human MAO-B
T3 sequence (P27338 whole entry): T2 sequence (P27338 whole entry)

Sequence of Sigma non-opioid intracellular receptor 1 (Q99720 whole entry): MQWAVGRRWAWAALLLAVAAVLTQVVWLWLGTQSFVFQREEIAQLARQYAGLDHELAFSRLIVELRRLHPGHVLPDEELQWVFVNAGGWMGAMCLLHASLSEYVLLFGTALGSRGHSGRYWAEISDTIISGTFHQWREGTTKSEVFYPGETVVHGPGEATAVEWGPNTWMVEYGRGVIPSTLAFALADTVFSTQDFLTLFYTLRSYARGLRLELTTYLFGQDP
Sequence of Cholinesterase (P06276 whole entry): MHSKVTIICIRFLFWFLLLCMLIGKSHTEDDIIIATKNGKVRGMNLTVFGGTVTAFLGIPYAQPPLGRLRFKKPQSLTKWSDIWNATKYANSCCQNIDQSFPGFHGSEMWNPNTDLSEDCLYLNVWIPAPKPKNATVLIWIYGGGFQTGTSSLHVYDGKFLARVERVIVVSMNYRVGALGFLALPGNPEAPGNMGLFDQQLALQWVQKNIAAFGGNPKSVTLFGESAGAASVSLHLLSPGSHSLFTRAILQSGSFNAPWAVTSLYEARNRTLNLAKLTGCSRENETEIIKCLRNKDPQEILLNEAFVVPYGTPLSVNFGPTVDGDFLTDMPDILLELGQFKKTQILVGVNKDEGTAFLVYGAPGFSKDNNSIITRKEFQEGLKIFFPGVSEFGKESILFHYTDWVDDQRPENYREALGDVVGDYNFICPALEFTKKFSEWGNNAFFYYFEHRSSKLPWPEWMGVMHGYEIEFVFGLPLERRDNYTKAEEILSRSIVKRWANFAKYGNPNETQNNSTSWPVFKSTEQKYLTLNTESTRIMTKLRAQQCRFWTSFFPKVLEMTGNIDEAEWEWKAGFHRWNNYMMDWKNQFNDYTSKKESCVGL
Sequence of Acetylcholinesterase (P22303 whole entry): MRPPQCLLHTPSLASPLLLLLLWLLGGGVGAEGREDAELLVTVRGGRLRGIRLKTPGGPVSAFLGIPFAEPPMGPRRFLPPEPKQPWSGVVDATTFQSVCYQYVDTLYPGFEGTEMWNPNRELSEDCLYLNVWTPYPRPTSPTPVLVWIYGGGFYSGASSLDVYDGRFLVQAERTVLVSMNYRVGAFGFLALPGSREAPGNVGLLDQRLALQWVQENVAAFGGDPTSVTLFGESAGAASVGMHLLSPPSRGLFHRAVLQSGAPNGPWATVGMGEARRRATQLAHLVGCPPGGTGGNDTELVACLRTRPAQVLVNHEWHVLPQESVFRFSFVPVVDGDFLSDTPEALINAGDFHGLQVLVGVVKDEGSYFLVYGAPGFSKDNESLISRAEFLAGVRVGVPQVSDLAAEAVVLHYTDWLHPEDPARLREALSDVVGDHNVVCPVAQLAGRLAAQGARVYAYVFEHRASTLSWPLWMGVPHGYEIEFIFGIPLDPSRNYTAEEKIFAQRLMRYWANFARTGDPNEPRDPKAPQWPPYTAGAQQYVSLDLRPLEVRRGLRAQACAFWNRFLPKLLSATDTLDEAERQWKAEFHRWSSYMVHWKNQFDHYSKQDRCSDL

Structure (SMILES) | Ki [1] | Ki [2] | further results
CN1CCN(CCCCCOc2ccc3occc(=O)c3c2)CC1 | 4.1 µM | 0.0825 µM | –
O=c1ccoc2ccc(OCCCCN3CCOCC3)cc12 | 14.6 µM | 0.0239 µM | –
CN1CCN(CCCOc2ccc3occc(=O)c3c2)CC1 | 17.1 µM | 0.809 µM | –
CCN(CC)CCCCCOc1ccc2occc(=O)c2c1 | 2.5 µM | 0.218 µM | –
O=c1ccoc2ccc(OCCCCN3CCCCC3)cc12 | 1.97 µM | 0.309 µM | IC50 [4]: 5.58 µM; IC50 [5]: 87.5 µM; IC50 ([6]; read-out: IC50): 7.2 µM
O=c1ccoc2ccc(OCCCN3CCCCC3)cc12 | 2.89 µM | 0.0655 µM | IC50 [6]: Not Active
O=c1ccoc2ccc(OCCCCCN3CCOCC3)cc12 | 2.63 µM | 0.0196 µM | IC50 [5]: > 100 µM; activity at 10 µM [3]: 58%
C[C@@H]1CCCN1CCCCCOc1ccc2occc(=O)c2c1 | 0.583 µM | 0.134 µM | –
CCN(CC)CCOc1ccc2occc(=O)c2c1 | 30 µM | 12.1 µM | –
CCN(CC)CCCOc1ccc2occc(=O)c2c1 | 8.36 µM | 1.22 µM | –
C[C@@H]1CCCN1CCCCOc1ccc2occc(=O)c2c1 | 1.09 µM | 0.104 µM | –

Now from value to compound, other results behind:

Ki [1] | Ki [2] | Structure (SMILES) | further results
> 10 µM | – | O=c1ccoc2ccc(OCCN3CCOCC3)cc12 | –
0.75 µM | 0.0272 µM | O=c1ccoc2ccc(OCCCN3CCCCCC3)cc12 | activity at 10 µM [3]: 54%
23.9 µM | 0.499 µM | O=c1ccoc2ccc(OCCCN3CCCC3)cc12 | –
12.5 µM | 2.87 µM | O=c1ccoc2ccc(OCCN3CCCC3)cc12 | –
1.45 µM | 0.087 µM | O=c1ccoc2ccc(OCCCCCN3CCCC3)cc12 | IC50 [6]: Not Active
14.2 µM | 0.604 µM | CN1CCN(CCOc2ccc3occc(=O)c3c2)CC1 | –
22.5 µM | 0.245 µM | O=c1ccoc2ccc(OCCCN3CCOCC3)cc12 | IC50 ([6]; read-out: IC50): 1.18 µM
0.49 µM | 0.213 µM | O=c1ccoc2ccc(OCCCCCN3CCCCC3)cc12 | –
3.11 µM | 0.227 µM | O=c1ccoc2ccc(OCCCCN3CCCC3)cc12 | –
1.62 µM | 0.113 µM | O=c1ccoc2ccc(OCCN3CCCCCC3)cc12 | –
9.07 µM | 0.825 µM | O=c1ccoc2ccc(OCCN3CCCCC3)cc12 | –
